Reference: patent US9012470B2 (Dart NeuroScience (Cayman) Ltd., priority 2010, dated 2015)

System: benzodiazepine site of GABAA
Experiment: Binding assay, benzodiazepine site of GABAA (binding assay 1: rat brain, (3H)-flunitrazepam; binding assay 2: bovine hippocampal membranes, [3H]-RY80)
Conditions: radioligand binding; for % Inhibition at 10 μM: 10 μM test compound; for % Inhibition at 0.1 μM: 0.1 μM test compound
Protocol: The ability of a compound disclosed herein to act as ligand to the benzodiazepine site of GABAA can be determined using pharmacological models which are well known in the art using the following assay.
Binding assay 1: Whole brain (except cerebellum) of male Wistar derived rats weighing 175±25 g were used to prepare GABAA central benzodiazepine receptor in Na—K phosphate buffer pH 7.4. A 5 mg aliquot was incubated with 1 nM (^3H)-flunitrazepam for 60 minutes at 25° C. Experiments were performed in the presence or absence of 30 μM of GABA. Non-specific binding was estimated in the presence of 10 μM of diazepam. Membranes were filtered and washed, the filters were then counted to determine (^3H)-flunitrazepam specifically bound. Test compounds were tested in duplicate according to the required concentrations (Damm, H. W., et al. (1978) Res. Comm. Chem. Pathol. Pharmacol. 22: 597-560 incorporated herein in its entirety; Speth, R. C., et al. (1979) Life Sci. 24: 351-357 incorporated herein in its entirety).
Receptor Source: Bovine hippocampal membranes
Radioligand: [3H]-RY80 (40-80 Ci/mmol)
Final ligand concentration—[0.8 nM]
Non-specific Determinant: L-655,708—[0.5 μM]
Binding assay 2 followed procedures based on Li and Szabo (Li M., Szabo A., Rosenberg H. Evaluation of native GABAA receptors containing an α5 subunit. Eur. J. Pharmacol. 413: 63-72 (2001)). Incubation Conditions: Reactions are carried out in 50 mM Tris-Citrate (pH 7.8) containing 200 mM NaCl at 0-4° C. for 60 minutes. The reaction is terminated by rapid vacuum filtration onto glass fiber filters. Radioactivity trapped onto the filters is determined and compared to control values in order to ascertain any interactions of test compound with the benzodiazepine (central) binding site.

SMILES | % Inhibition at 10 μM | % Inhibition at 0.1 μM
CNC(=O)n1ncc2c3nn(-c4cccc(Cl)c4)c(=O)c-3c[nH]c21 [Compound 6ab, 2-(3-chlorophenyl)-N-methyl-3-oxo-2,3-dihydrodipyrazolo[3,4-b:3′,4′-d]pyridine-6(5H)-carboxamide] | A (A indicates % inhibition >80%) | –
CCNC(=S)n1ccc2c3nn(-c4ccccc4)c(=O)c-3c[nH]c21 [Compound 17e, N-ethyl-3-oxo-2-phenyl-2,3-dihydropyrazolo[3,4-d]pyrrolo[2,3-b]pyridine-6(5H)-carbothioamide] | B (B indicates % inhibition <80% and >20%) | –
O=C(N1CCCC1)n1ncc2c3nn(-c4ccccc4)c(=O)c-3c[nH]c21 [Compound 6k, 2-phenyl-6-(pyrrolidine-1-carbonyl)-5,6-dihydrodipyrazolo[3,4-b:3′,4′-d]pyridin-3(2H)-one] | C (C indicates % inhibition <20%) | C (C indicates % inhibition <20%)
CC(C)NC(=O)n1ncc2c3nn(-c4ccc(Cl)cc4)c(=O)c-3c[nH]c21 [Compound 6p, 2-(4-chlorophenyl)-N-isopropyl-3-oxo-2,3-dihydrodipyrazolo[3,4-b:3′,4′-d]pyridine-6(5H)-carboxamide] | C (C indicates % inhibition <20%) | C (C indicates % inhibition <20%)
CCCCNC(=O)n1ncc2c3nn(-c4ccc(F)cc4F)c(=O)c-3c[nH]c21 [Compound 6an, N-butyl-2-(2,4-difluorophenyl)-3-oxo-2,3-dihydrodipyrazolo[3,4-b:3′,4′-d]pyridine-6(5H)-carboxamide] | A (A indicates % inhibition >80%) | B (B indicates % inhibition <80% and >20%)
CNC(=O)n1ncc2c3nn(-c4ccc(C(F)(F)F)cc4)c(=O)c-3c[nH]c21 [Compound 6ag, N-methyl-3-oxo-2-(4-(trifluoromethyl)phenyl)-2,3-dihydrodipyrazolo[3,4-b:3′,4′-d]pyridine-6(5H)-carboxamide] | B (B indicates % inhibition <80% and >20%) | –
CCNC(=O)n1ncc2c3nn(-c4ccccc4F)c(=O)c-3c[nH]c21 | A (A indicates % inhibition >80%) | B (B indicates % inhibition <80% and >20%)
CNC(=O)n1ncc2c3nn(-c4ccc(Br)cc4)c(=O)c-3c[nH]c21 [Compound 6az, 2-(4-bromophenyl)-N-methyl-3-oxo-2,3-dihydrodipyrazolo[3,4-b:3′,4′-d]pyridine-6(5H)-carboxamide] | A (A indicates % inhibition >80%) | –
CC(C)NC(=O)n1ncc2c3nn(-c4cc(C(F)(F)F)cc(C(F)(F)F)c4)c(=O)c-3c[nH]c21 [Compound 6r, 2-(3,5-bis(trifluoromethyl)phenyl)-N-isopropyl-3-oxo-2,3-dihydrodipyrazolo[3,4-b:3′,4′-d]pyridine-6(5H)-carboxamide] | B (B indicates % inhibition <80% and >20%) | –
CCNC(=O)n1ncc2c3nn(-c4ccc(F)cc4F)c(=O)c-3c[nH]c21 [Compound 6ao, 2-(2,4-difluorophenyl)-N-ethyl-3-oxo-2,3-dihydrodipyrazolo[3,4-b:3′,4′-d]pyridine-6(5H)-carboxamide] | A (A indicates % inhibition >80%) | B (B indicates % inhibition <80% and >20%)
CCNC(=O)n1ccc2c3nn(-c4ccccc4)c(=O)c-3c[nH]c21 [Compound 17b, N-Ethyl-3-oxo-2-phenyl-2,3-dihydropyrazolo[3,4-d]pyrrolo[2,3-b]pyridine-6(5H)-carboxamide] | B (B indicates % inhibition <80% and >20%) | C (C indicates % inhibition <20%)
CC(C)CCNC(=O)n1ncc2c3nn(-c4ccccc4)c(=O)c-3c[nH]c21 [Compound 6g, N-isopentyl-3-oxo-2-phenyl-2,3-dihydrodipyrazolo[3,4-b:3′,4′-d]pyridine-6(5H)-carboxamide] | A (A indicates % inhibition >80%) | B (B indicates % inhibition <80% and >20%)

The next lines start with the values.

% Inhibition at 10 μM | % Inhibition at 0.1 μM | SMILES
C (C indicates % inhibition <20%) | C (C indicates % inhibition <20%) | CC(C)NC(=O)n1ccc2c3nn(-c4ccccc4)c(=O)c-3c[nH]c21 [Compound 17c, N-Isopropyl-3-oxo-2-phenyl-2,3-dihydropyrazolo[3,4-d]pyrrolo[2,3-b]pyridine-6(5H)-carboxamide]
C (C indicates % inhibition <20%) | C (C indicates % inhibition <20%) | O=C(Nc1ccccc1)n1ccc2c3nn(-c4ccccc4)c(=O)c-3c[nH]c21 [Compound 17d, 3-Oxo-N,2-diphenyl-2,3-dihydropyrazolo[3,4-d]pyrrolo[2,3-b]pyridine-6(5H)-carboxamide]
